According to patent publication US20260263613A1, “USE OF DRUG C[…]-CD20 ANTIBODY-DRUG CONJUGATE IN PREPARATION OF DRUG FOR TREATING NHL” (priority 2023, published 2026):
Several values for one entry are separate records, joined by “and”; a condition that tells them apart may be missing. Equal values may be shown once.

Columns and labels:
[1] = tested on: human lymphoma WSU-DLCL2 cell xenograft tumor; experiment: Inhibition of human lymphoma WSU-DLCL2 cell xenograft tumor growth; assay type: in vivo, SCID mouse
Procedure: Example 3: Inhibition of Human Lymphoma WSU-DLCL2 Cell Xenograft Tumor Growth by TRS005 Alone and TRS005 in Combination with CHP Compared to R-CHOP Regimen Administration Drug Information, Model Establishment, Grouping, and Administration
The TRS005 finished product is provided by Zhejiang Teruisi Pharmaceutical Inc., and other positive drugs are commercially available. Among them, MabThera, Cyclophosphamide, Doxorubicin, Vincristine, and Prednisone are prepared with normal saline as the solvent to corresponding concentrations and stored at 4° C. away from light. The TRS005 finished product is reconstituted with sterile water for injection (WFI), and a corresponding volume of normal saline is added to prepare the corresponding concentration. The TRS005 finished product is reconstituted and packaged with WFI and stored at −70° C.
(§1) Under sterile conditions, each SCID mouse was inoculated with 0.1 mL of WSU-DLCL2 cell suspension at a concentration of 4×10^7/mL subcutaneously on the right back. When the mean tumor volume (TV) reached ~150 mm^3, animals were randomized into 4 groups according to their TV: Group 1 (Vehicle), Group 2 (R-CHOP), Group 3 (TRS005) and Group 4 (TRS005-CHP (T-CHP)), with 6 mice in each group, so that the difference in TV of mice in each group was <10% of the mean. The day of grouping was recorded as Day 0, and the administration was started according to animal body weight (BW).
(§2) The BW and TV of animals were measured twice a week during the study. During the study, the clinical symptoms of animals were observed and recorded once a day. Clinical observations included general health status, abnormal BW and behavior of animals, and other treatment-related adverse reactions.
(§3) The tumor growth inhibition rate (% TGI) is calculated as follows: (1−TVT/TVC)×100%, where TVC is the mean TV of the negative control group, and TVT is the mean TV of the treatment group.
(§4) Relative Tumor Volume (RTV) is calculated as Vt/V0, where V0 is the TV at grouping and Vt is the TV at each measurement.
(§5) The calculation formula for relative tumor proliferation rate (% T/CRTV) is: • TRTV/CRTV×100%, where TRTV is the RTV of the treatment group and CRTV is the RTV of the negative control group.
(§6) According to the Technical Guidelines for Nonclinical Study of Cytotoxic Anti-tumor Drugs (November 2006) issued by NMPA in China, it is considered effective if % T/CRTV≤40% and P<0.05 after statistical analysis. Drug doses are considered to be severely toxic when the number of animal deaths related to the drug exceeds 20%.

[2] = Body weight and drug-related deaths of WSU-DLCL2 tumor-bearing animals; assay type: in vivo, SCID mouse
Procedure: as §1, §2
(§7) The animal body weight change (% BWC) is calculated as follows: (BWt−BW0)/BW0×100%, where BWt is the animal BW at each measurement and BW0 is the animal BW at grouping.
as §6

[3] = tested on: human lymphoma OCI-LY19 cell xenograft tumors; experiment: Growth inhibition of human lymphoma OCI-LY19 cell xenograft tumors; assay type: in vivo, mouse
Procedure: Embodiment 4: Growth Inhibition of Human Lymphoma OCI-LY19 Cell Xenograft Tumors by TRS005 Alone and TRS005 in Combination with CHP Compared to R-CHOP Regimen Administration
(§8) The drug information is the same as in Embodiment 3. Under sterile conditions, each mouse was inoculated with 0.1 mL of OCI-LY19 cell suspension at a concentration of 2×10^6/mL subcutaneously on the right back. When the mean TV reached ~150 mm^3, animals were randomized into 4 groups according to their TV: Group 1 (Vehicle), Group 2 (R-CHOP), Group 3 (TRS005) and Group 4 (T-CHP), with 10 mice in each group, so that the difference in TV of mice in each group was <10% of the mean. The day of grouping was recorded as Day 0, and the administration was started according to animal BW.
(§9) The BW and TV of animals were measured twice a week during the study. During the study, the clinical symptoms of animals were observed and recorded once a day. Clinical observations included general health status, abnormal BW and behavior of animals, and other treatment-related adverse reactions. During the study, if an individual experimental animal meets any of the following conditions, the animal will be removed from the study group and euthanized. 1. The body weight loss (BWL) of animals was ≥20% compared with Day 0; 2. Animals had serious adverse reactions, such as blindness and paralysis; 3. TV was >2000 mm^3; 4. Open ulcers were formed on the tumor surface.
The calculation formula for TV is: ½×a×b^2, where a and b are the measured length and width of the tumor, respectively.
as §3, §4, §5

[4] = Body weight and drug-related deaths of OCI-LY19 tumor-bearing animals; assay type: in vivo, mouse
Procedure: as §8, §9, §7

Substance: TRS005: anti-CD20 ADC; mAb is Rituximab or a biosimilar thereof, drug antibody ratio (DAR) 4.2±0.5
- Anti-tumor efficacy in words ([1]; WSU-DLCL2 xenograft (high CD20 expression), compared with the other regimens): better efficacy than the R-CHOP regimen
- Tumor Volume (Mean ± SEM) Day 0 ([1]; WSU-DLCL2 xenograft, Day 0 (at grouping, before dosing), 6 mice/group): 127.16 mm^3
- % T/CRTV Day 35 ([1]; WSU-DLCL2 xenograft, Day 35): 17.81%
- RTV Day 35 ([1]; WSU-DLCL2 xenograft, Day 35, Vt/V0): 2.44
- Tumor Volume (Mean ± SEM) Day 35 ([1]; WSU-DLCL2 xenograft, Day 35, TRS005 0.75 mg/kg IV BIW × 3 w, regimens per Table 2, 0.75 mg/kg): 315.93±94.23 mm^3 and 315.93 mm^3
- % TGI Day 35 ([1]; WSU-DLCL2 xenograft, Day 35, regimens per Table 2): 81.94%
- Body Weight of Mice (Mean ± SEM) Day 0 ([2]; Day 0 (baseline)): 20.12 ± 0.35 g
- Body Weight of Mice (Mean ± SEM) Day 35 ([2]; Day 35): 20.78 ± 0.50 g
- % BWC Day 35 vs Day 0 ([2]; WSU-DLCL2 tumor-bearing mice): 3.25%
- Body weight change Day 35 vs Day 0 ([2]; WSU-DLCL2 tumor-bearing mice): 0.66 g
- Safety / drug-related toxicity in words ([2]; WSU-DLCL2 tumor-bearing mice, during the study): good safety
- Number of Mice with Drug-related Deaths Day 35 ([2]; deaths/number of mice): 0/6
- Tumor Volume (Mean ± SEM) Day 0 ([3]; Day 0 (at grouping, before dosing), 10 mice/group): 107.78 mm^3
- % T/CRTV Day 14 ([3]; Day 14): 48.28%
- % TGI Day 14 ([3]; Day 14): 51.87%
- Tumor Volume (Mean ± SEM) Day 14 ([3]; Day 14, TRS005 1.5 mg/kg IV BIW × 3 w, regimens per Table 5, 1.5 mg/kg): 905.30±129.66 mm^3 and 905.30 mm^3
- RTV Day 14 ([3]; Day 14, Vt/V0): 8.29
- Tumor Volume (Mean ± SEM) Day 17 ([3]; Day 17): 1182.02 mm^3
- Tumor Volume (Mean ± SEM) Day 21 ([3]; Day 21, remaining mice (Group 3 N = 9)): 1764.32 mm^3
- Tumor Volume (Mean ± SEM) Day 24 ([3]; Day 24, remaining mice (Group 3 N = 6)): 2274.64 mm^3
- Tumor Volume (Mean ± SEM) Day 28 ([3]; Day 28, remaining mice (Group 2 N = 3, Group 3 N = 1, Group 4 N = 9)): 0.00 mm^3
- Body Weight of Mice (Mean ± SEM) Day 0 ([4]; Day 0 (baseline)): 20.95 ± 0.36 g
- Body Weight of Mice (Mean ± SEM) Day 14 ([4]; Day 14): 22.76 ± 0.45 g
- % BWC Day 14 vs Day 0 ([4]; OCI-LY19 tumor-bearing mice): 8.96%
- Body weight change Day 14 vs Day 0 (in g) ([4]; OCI-LY19 tumor-bearing mice): (1.81 g)
- Safety / drug-related toxicity in words ([4]; OCI-LY19 tumor-bearing mice, during the study): good safety
- Number of Mice with Drug-related Deaths Day 14 ([4]; deaths/number of mice): 0/10
